Results: publication PMC4019636, “Rational Design of Berberine-Based FtsZ Inhibitors with Broad-Spectrum Antibacterial Activity” (PLoS ONE, 2014)

Test system: B. subtilis strain 168 cells
Assay: Bacterial morphology and membrane staining studies
Format: cell-based
Conditions: 4 µM compound
Description: The B. subtilis strain 168 cells were grown in LB medium. The cultures at an A600 of 0.01 from an overnight culture were inoculated in the same medium containing different concentrations of the test compounds and grown at 37°C for 4 h. The cells for morphology studies were harvested and resuspended in 100 µL of PBS (phosphate buffered saline) buffer containing 0.25% agarose. For membrane staining, the B. subtilis cells were further incubated with 1.6 µM of FM 4–64 for an additional 30 min at 37°C without shaking before harvested and resuspended in 100 µL PBS buffer containing 0.25% agarose. 10 µL of the suspension mixture were then placed on a microscopic slide pretreated with 0.1% (w/v) poly-L-lysine and the morphology of the bacterial cells was observed under a phase-contrast optical microscope at 40× magnification. The images were captured using an Olympus Bio Imaging Navigator FSX 100 microscope.

SMILES: COc1ccc2cc3[n+](cc2c1OCCCOc1ccc(Cl)cc1)CCc1cc2c(cc1-3)OCO2 [Compound 2]
- cell length of B. subtilis (4 h at 37°C, compared to untreated cells): significantly increased
- perturbation of the cell membrane (FM 4-64 staining) (B. subtilis 168, compared to untreated cells): did not induce any detectable perturbation
